The test system of one data set is Oryctolagus sp. Particulars: developmental; development.
A further data set concerns Apis mellifera. To be noted: acute, mortality.
The subject of the next data set is Oncorhynchus mykiss. To be noted: acute; duration: 96 hours; mortality.
The next data set concerns Rattus norvegicus. Particulars: for LD50: acute, oral, mortality; for NOAEL: reproduction developmental, histopathology: nonneoplastic.
Another data set concerns Tagia sp. Particulars: acute; duration: 14 days; mortality.
The test system of the next data set is Typhlodromus pyri. Description: LR50; higher = less toxic. Particulars: not reported; mortality.
A further data set deals with Colinus virginianus. To be noted: acute, oral, mortality.

Bounds are passed on as bounds.

Take `C=C1C[C@]23C[C@H]1CC[C@H]2[C@@]12CC[C@H](O)[C@@](C)(C(=O)O1)[C@H]2[C@@H]3C(=O)O` [Gibberellin A4]: the NOAEL in the data set on Oryctolagus sp. and with Rattus norvegicus was 300 mg/kg-day throughout. In addition, the LD50 with Apis mellifera (dermal) was above 100 µg/piece; in the data set on Apis mellifera (oral, unspecified) it was above 87 µg/piece; in the data set on Rattus norvegicus, above 5000 mg/kg. Also, the LC50 in the data set on Oncorhynchus mykiss is above 1.3 µg/mL; in the data set with Tagia sp., above 1250 mg/kg. Moreover, in the data set with Typhlodromus pyri, the LR50 was above 40 g/ha.
`C=C1C[C@]23C[C@H]1CC[C@H]2[C@@]12C=C[C@H](O)[C@@](C)(C(=O)O1)[C@H]2[C@@H]3C(=O)O` [Gibberellin A7]: the NOAEL with Oryctolagus sp. and in the data set with Rattus norvegicus was 300 mg/kg-day in each case. Besides, the LD50 in the data set with Apis mellifera (dermal) was above 100 µg/piece; in the data set on Apis mellifera (oral, unspecified), above 87 µg/piece; with Rattus norvegicus, above 5000 mg/kg. In addition, the LC50 with Oncorhynchus mykiss is above 1.3 µg/mL; in the data set with Tagia sp., above 1250 mg/kg. This molecule also registered an LR50 in the data set on Typhlodromus pyri above 40 g/ha.
Take `C=C1C[C@]23C[C@@]1(O)CC[C@H]2[C@@]12C=C[C@H](O)[C@@](C)(C(=O)O1)[C@H]2[C@@H]3C(=O)O` [Gibberellic acid]: the LD50 in the data set with Colinus virginianus (diet) is above 1380 mg/kg-day; with Colinus virginianus, above 2250 mg/kg.

The values are drawn from EPA's ToxValDB 9.5 (doi:10.2903/j.efsa.2012.2502).
